# Test system: 485368-065-R3-J5-PDC spheroids with HUVEC/MSC, viability
# Assay: Anticancer human tumor 485368-065-R3-J5-PDC patient-derived pancreatic carcinoma cell line growth inhibition [RAS]
# Settings: for IC50: curve of first compound; for viability, T/C: stronger effect = lower value
# Procedure, shortened: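 Agents were tested in combination matrices in half-log decrements from a top concentration at or near clinical Cmax (10 microM if undetermined). Targets were multi-cell spheroids of tumour lines plus HUVEC and MSC stromal cells.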
# [1] = second compound 0.000949 µM, first compound 0.0316 µM
# [2] = second compound 0.000949 µM, first compound 0.1 µM
# [3] = second compound 0.000949 µM, first compound 0.316 µM
# [4] = second compound 0.000949 µM, first compound 1 µM
# [5] = second compound 0.003 µM, first compound 0.0316 µM
# [6] = second compound 0.003 µM, first compound 0.1 µM
# [7] = second compound 0.003 µM, first compound 0.316 µM
# [8] = second compound 0.003 µM, first compound 1 µM
# [9] = second compound 0.00949 µM, first compound 0.0316 µM
# [10] = second compound 0.00949 µM, first compound 0.1 µM
# [11] = second compound 0.00949 µM, first compound 0.316 µM
# [12] = second compound 0.00949 µM, first compound 1 µM
# [13] = second compound 0.03 µM, first compound 0.0316 µM
# [14] = second compound 0.03 µM, first compound 0.1 µM
# [15] = second compound 0.03 µM, first compound 0.316 µM
# [16] = second compound 0.03 µM, first compound 1 µM
# [17] = second compound 0.0949 µM, first compound 0.0316 µM
# [18] = second compound 0.0949 µM, first compound 0.1 µM
# [19] = second compound 0.0949 µM, first compound 0.316 µM
# [20] = second compound 0.0949 µM, first compound 1 µM
# [21] = second compound 0.3 µM, first compound 0.0316 µM
# [22] = second compound 0.3 µM, first compound 0.1 µM
# [23] = second compound 0.3 µM, first compound 0.316 µM
# [24] = second compound 0.3 µM, first compound 1 µM
# 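Also: spheroids exposed to agents for seven days before readout.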
smiles,measurement,setting,value
CC1(O)CCCC1n1c(=O)c(C(F)F)cc2cnc(NC3CCN(S(C)(=O)=O)CC3)nc21 (centres undefined) + CCn1c(-c2cc(N3CCN(C)CC3)cnc2C(C)OC)c2c3cc(ccc31)-c1csc(n1)CC(NC(=O)C1CC1C)C(=O)N1CCCC(N1)C(=O)OCC(C)(C)C2,IC50,second compound 0.000949 µM,< 31.6 nM
same,IC50,second compound 0.003 µM,< 31.6 nM
same,IC50,second compound 0.00949 µM,< 31.6 nM
same,IC50,second compound 0.03 µM,< 31.6 nM
same,IC50,second compound 0.0949 µM,< 31.6 nM
same,IC50,second compound 0.3 µM,< 31.6 nM
same,"viability, T/C",[1],32.3%
same,"viability, T/C",[2],24.5%
same,"viability, T/C",[3],18.9%
same,"viability, T/C",[4],21.9%
same,"viability, T/C","second compound 0.000949 µM, first compound 3.16 µM",27.9%
same,"viability, T/C","second compound 0.000949 µM, first compound 10 µM",14%
same,"viability, T/C",[5],18.5%
same,"viability, T/C",[6],15.5%
same,"viability, T/C",[7],13.4%
same,"viability, T/C",[8],11.9%
same,"viability, T/C","second compound 0.003 µM, first compound 3.16 µM",14.7%
same,"viability, T/C","second compound 0.003 µM, first compound 10 µM",9.44%
same,"viability, T/C",[9],14.6%
same,"viability, T/C",[10],12.9%
same,"viability, T/C",[11],11.6%
same,"viability, T/C",[12],10.3%
same,"viability, T/C","second compound 0.00949 µM, first compound 3.16 µM",11%
same,"viability, T/C","second compound 0.00949 µM, first compound 10 µM",8.01%
same,"viability, T/C",[13],11.8%
same,"viability, T/C",[14],9.04%
same,"viability, T/C",[15],9.94%
same,"viability, T/C",[16],9.99%
same,"viability, T/C","second compound 0.03 µM, first compound 3.16 µM",9.98%
same,"viability, T/C","second compound 0.03 µM, first compound 10 µM",8.86%
same,"viability, T/C",[17],7.96%
same,"viability, T/C",[18],8.33%
same,"viability, T/C",[19],7.56%
same,"viability, T/C",[20],9.28%
same,"viability, T/C","second compound 0.0949 µM, first compound 3.16 µM",11.6%
same,"viability, T/C","second compound 0.0949 µM, first compound 10 µM",8.42%
same,"viability, T/C",[21],7.72%
same,"viability, T/C",[22],7.59%
same,"viability, T/C",[23],7.36%
same,"viability, T/C",[24],7.64%
same,"viability, T/C","second compound 0.3 µM, first compound 3.16 µM",9.08%
same,"viability, T/C","second compound 0.3 µM, first compound 10 µM",7.54%
CCN1CCN(Cc2ccc(Nc3ncc(F)c(-c4cc(F)c5nc(C)n(C(C)C)c5c4)n3)nc2)CC1 + CCn1c(-c2cc(N3CCN(C)CC3)cnc2C(C)OC)c2c3cc(ccc31)-c1csc(n1)CC(NC(=O)C1CC1C)C(=O)N1CCCC(N1)C(=O)OCC(C)(C)C2,IC50,second compound 0.000949 µM,< 3.16 nM
same,IC50,second compound 0.003 µM,< 3.16 nM
same,IC50,second compound 0.00949 µM,< 3.16 nM
same,IC50,second compound 0.03 µM,< 3.16 nM
same,IC50,second compound 0.0949 µM,< 3.16 nM
same,IC50,second compound 0.3 µM,< 3.16 nM
same,"viability, T/C","second compound 0.000949 µM, first compound 0.00316 µM",31.4%
same,"viability, T/C","second compound 0.000949 µM, first compound 0.01 µM",27.4%
same,"viability, T/C",[1],31.6%
same,"viability, T/C",[2],22.1%
same,"viability, T/C",[3],28.7%
same,"viability, T/C",[4],27.1%
same,"viability, T/C","second compound 0.003 µM, first compound 0.00316 µM",22.1%
same,"viability, T/C","second compound 0.003 µM, first compound 0.01 µM",21.1%
same,"viability, T/C",[5],16.8%
same,"viability, T/C",[6],15.4%
same,"viability, T/C",[7],18.4%
same,"viability, T/C",[8],22.4%
same,"viability, T/C","second compound 0.00949 µM, first compound 0.00316 µM",16.1%
same,"viability, T/C","second compound 0.00949 µM, first compound 0.01 µM",16.4%
same,"viability, T/C",[9],11%
same,"viability, T/C",[10],15.1%
same,"viability, T/C",[11],14.2%
same,"viability, T/C",[12],18.3%
same,"viability, T/C","second compound 0.03 µM, first compound 0.00316 µM",11.1%
same,"viability, T/C","second compound 0.03 µM, first compound 0.01 µM",11.8%
same,"viability, T/C",[13],9.68%
same,"viability, T/C",[14],13.2%
same,"viability, T/C",[15],13.1%
same,"viability, T/C",[16],16.5%
same,"viability, T/C","second compound 0.0949 µM, first compound 0.00316 µM",8.73%
same,"viability, T/C","second compound 0.0949 µM, first compound 0.01 µM",10.7%
same,"viability, T/C",[17],9.07%
same,"viability, T/C",[18],8.91%
same,"viability, T/C",[19],12.2%
same,"viability, T/C",[20],15.6%
same,"viability, T/C","second compound 0.3 µM, first compound 0.00316 µM",8.74%
same,"viability, T/C","second compound 0.3 µM, first compound 0.01 µM",8.83%
same,"viability, T/C",[21],7.48%
same,"viability, T/C",[22],9.84%
same,"viability, T/C",[23],10.8%
same,"viability, T/C",[24],15.2%

# From PubChem BioAssay AID2060902 (Molecular Pharmacology Branch, DTP, NCI, 2025)
